# Results as given in US20030220406A1, “Solutizing agents” (priority 2000, published 2003).
# Assay: Solubilizing power: test substances added to 10 g of solubilizer until the solubility limit was reached
# Assay type: physicochemical
# Text: Example 1 corresponds to the invention, Examples C1 and C2 are intended for comparison.
# [1] = in comparison solubilizer C1 (PEG-40 Hydrogenated Castor Oil 100 % by weight)
# [2] = in comparison solubilizer C2 (Cocoeth-8 100 % by weight)
# [3] = in solubilizer of Example 1 (Cocoeth-8 40, PPG1-PEG9 Lauryl Glycol Ether 30, PEG-40 Hydrogenated Castor Oil 20, Water 10 % by weight)
Compound,Solubility [1] [g/10 g solubilizer],Solubility [2] [g/10 g solubilizer],Solubility [3] [g/10 g solubilizer]
Cc1ccc(C=C2C(=O)C3(C)CCC2C3(C)C)cc1 (stereo not drawn) [4-Methylbenzylidene Camphor],0.50,0.38,1.10
COc1ccc(/C=C/C(=O)OCCC(C)C)cc1 [Isoamyl Methoxycinnamate],0.60,0.70,1.10

# The next lines start with the values.
Solubility [1] [g/10 g solubilizer],Solubility [2] [g/10 g solubilizer],Solubility [3] [g/10 g solubilizer],Compound
0.40,0.50,0.90,Tocopherol
0.40,0.20,0.44,COc1ccc(C(=O)c2ccccc2)c(O)c1 [Benzophenone-3]
0.45,0.60,1.60,CCCCC(CC)COC(=O)C=Cc1ccc(OC)cc1 (stereo not drawn) [Octyl Methoxycinnamate]
1.10,1.05,4.80,CC1CCC(C(C)C)C(O)C1 (stereo not drawn) [Menthol]
